{"source": "patent US4613587A", "about": "“Ophthalmic preparations” (Yeda Research and Development Co. Ltd., priority 1983, dated 1986)", "key": {"Pseudomonas elastase": {"target": "Pseudomonas elastase (Pseudomonas aeruginosa, UniProt P14756)", "sequence (P14756 198-498)": "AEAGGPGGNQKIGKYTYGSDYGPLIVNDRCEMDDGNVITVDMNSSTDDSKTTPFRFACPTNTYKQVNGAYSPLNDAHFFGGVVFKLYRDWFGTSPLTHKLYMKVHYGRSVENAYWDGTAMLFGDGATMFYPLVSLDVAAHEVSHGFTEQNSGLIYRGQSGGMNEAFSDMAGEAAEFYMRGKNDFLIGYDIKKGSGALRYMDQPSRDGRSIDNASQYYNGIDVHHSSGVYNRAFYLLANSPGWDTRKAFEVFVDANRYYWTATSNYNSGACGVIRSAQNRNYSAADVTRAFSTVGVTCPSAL", "test": "biochemical", "method": "Measurements were performed at 25° C. The reaction solutions (2.5 ml) ocnsisted of 0.1-0.2 mM substrate in 0.1M NaCl-0.05M Tris. HCl-0.01M CaCl2, pH 7.5; all were demetallized. The hydrolysis of substrate was first order and rates were determined from plots of (At -A) versus t (At and A represent absorbance at time t and after completion of the reaction, respectively). Inhibition constants (Ki) were derived from plots of ko /ki versus inhibitor concentration (ko and ki are the observed rate constants in absence and presence of inhibitors, respectively).\nThe inhibition characteristics of […] for Pseudomonas elastase, using furylacryloyl-Gly-Leu-Ala as the substrate, was determined. […] The Ki value for HS-Ac-Phe-Leu was 0.2 μM."}, "[1]": {"target": "T1, Pseudomonas aeruginosa elastase (Pseudomonas aeruginosa, UniProt P14756)", "T1 sequence (P14756 198-498)": "as above", "test": "Protection of the cornea: topical inhibitor drops before and after elastase injection into rabbit cornea", "format": "in vivo", "settings": "10 mM solution", "from_the_text": "2. […] This series of experiments proves that the mercaptoacetyl dipeptide is an effective agent preventing damage to the eye caused by Pseudomonas aeruginosa elastase."}, "[2]": {"target": "T1, Pseudomonas aeruginosa elastase", "test": "Protection of the cornea: pure elastase injected into rabbit cornea together with inhibitor", "format": "in vivo", "settings": "rabbit eye, about 1 μg elastase injected with 0.2 μmole (70 μg) inhibitor", "method": "1. When about 1 μg of the pure elastase is injected into the cornea of a rabbit eye, the cornea \"dissolves\", swells and perforates within about an hour and a half from the time of the injection of the elastase. When the same amount of enzyme is injected in the presence of 0.2μ mole (70 μg) of the inhibitor mercaptoacetyl-L-phenylalanyl-L leucine, the dissolution effect is postponed to about 9 hours from the injection of the enzyme. […] The perforation of the cornea is prevented."}, "Pseudomonas aeruginosa [3]": {"test_system": "Pseudomonas aeruginosa", "test": "Experimental model of Pseudomonas keratitis in rabbit eyes, antibiotic plus inhibitor versus antibiotic alone", "format": "in vivo", "settings": "10 mM inhibitor drops combined with 0.3% gentamicin sulfate", "method": "3. The efficacy of combined treatment with antibiotics and the inhibitor HSAc-Phe-Leu was compared with that of the antibiotics alone using an experimental model of Pseudomonas keratitis in rabbit eyes. The inhibitor at a concentration of 10 mM was given, one drop at a time, every 15 min. for 1 hour after infection with the bacteria, and then hourly for additional 44 hours. The antibiotic (0.3% gentamicin sulfate) was applied every 2 hours, starting 16 hours after infection."}, "Pseudomonas aeruginosa [4]": {"test_system": "Pseudomonas aeruginosa", "test": "Rabbit eyes infected with P. aeruginosa, topical treatment (Expt. A and B), clinical scores and corneal melting", "format": "in vivo", "settings": "for Development of extensive corneal melting (%) / Development of extensive corneal melting, No. of eyes with melting/No. of eyes in group: extensive: 30% of corneal area affected; for Development of corneal melting (%) / Development of corneal melting, No. of eyes with melting/No. of eyes in group: rabbit eyes; for Clinical Scores: individual rabbit eyes, scoring of Table 3, maximum 10", "method": "Further experiments were carried out. The schedule of topical treatment is set out in Table 2. The criteria applied to the results are set out in Table 3. […]"}, "[5]": {"target": "elastase of P. aeruginosa (Pseudomonas aeruginosa, UniProt P14756)", "sequence (P14756 198-498)": "as above", "settings": "background; known inhibitors effective at rather large concentrations; cited from earlier work"}}, "note": "“And” between values parts separate entries of the source, which are not always exact repeats. Identical values can stand only once. Like-named read-outs stand apart in the source and are kept apart here.", "data": [{"compound": "CC(C)C[C@H](NC(=O)CS)C(=O)N[C@H](Cc1ccccc1)C(=O)O", "note": "[HS-Ac-Leu-D-Phe]", "values": [{"measurement": "Ki", "setting": "Pseudomonas elastase; 25° C., pH 7.5, substrate furylacryloyl-Gly-Leu-Ala, read-out: Ki", "value": 34000, "unit": "nM"}]}, {"compound": "CC(C)C[C@H](NC(=O)[C@H](Cc1ccccc1)NC(=O)CS)C(=O)O", "note": "[HS-Ac-Phe-Leu, mercaptoacetyl-L-phenylalanyl-L-leucine]", "values": [{"measurement": "dissolution of the cornea", "setting": "[1]; topical drops before and after enzyme injection", "value": "no \"dissolution\" of the cornea takes place at all"}, {"measurement": "appearance of the eye", "setting": "[1]; topical drops, remains for many hours after cessation of treatment", "value": "entirely normal"}, {"measurement": "perforation of the cornea", "setting": "[2]", "value": "prevented"}, {"measurement": "damage caused, part of the cornea affected", "setting": "[2]; after about 9 hours", "value": "≤ 10", "unit": "%"}, {"measurement": "time from injection of the enzyme to which the dissolution effect of the cornea is postponed", "setting": "[2]; without inhibitor about an hour and a half", "value": "about 9 hours"}, {"measurement": "Ki", "setting": "Pseudomonas elastase", "value": 200, "unit": "nM"}, {"measurement": "severity of the damage caused to the eyes, versus antibiotic alone", "setting": "Pseudomonas aeruginosa [3]", "value": "significantly lower"}]}, {"compound": "gentamicin sulfate", "values": [{"measurement": "Development of extensive corneal melting (%)", "setting": "Pseudomonas aeruginosa [4]; 28 h after infection", "value": 27, "unit": "%"}, {"measurement": "Development of extensive corneal melting, No. of eyes with melting/No. of eyes in group", "setting": "Pseudomonas aeruginosa [4]; 28 h after infection", "value": "4/15"}, {"measurement": "Development of corneal melting (%)", "setting": "Pseudomonas aeruginosa [4]; 28 h after infection", "value": 73, "unit": "%"}, {"measurement": "Development of corneal melting, No. of eyes with melting/No. of eyes in group", "setting": "Pseudomonas aeruginosa [4]; 28 h after infection", "value": "11/15"}, {"measurement": "Clinical Scores", "setting": "Pseudomonas aeruginosa [4]; 28 hours after infection, Expt. A", "value": "7 and 4 and 3 and 6 and 1"}, {"measurement": "Clinical Scores", "setting": "Pseudomonas aeruginosa [4]; 28 hours after infection, Expt. B", "value": "3 and 2 and 1 and 6"}, {"measurement": "Development of extensive corneal melting (%)", "setting": "Pseudomonas aeruginosa [4]; 48 h after infection", "value": 60, "unit": "%"}, {"measurement": "Development of extensive corneal melting, No. of eyes with melting/No. of eyes in group", "setting": "Pseudomonas aeruginosa [4]; 48 h after infection", "value": "9/15"}, {"measurement": "Development of corneal melting (%)", "setting": "Pseudomonas aeruginosa [4]; 48 h after infection", "value": 93, "unit": "%"}, {"measurement": "Development of corneal melting, No. of eyes with melting/No. of eyes in group", "setting": "Pseudomonas aeruginosa [4]; 48 h after infection", "value": "14/15"}, {"measurement": "Clinical Scores", "setting": "Pseudomonas aeruginosa [4]; 48 hours after infection, Expt. A", "value": "7 and 10 and 6 and 4 and 3"}, {"measurement": "Clinical Scores", "setting": "Pseudomonas aeruginosa [4]; 48 hours after infection, Expt. B", "value": "6 and 7 and 5 and 4"}]}, {"compound": "CC(C)C[C@H](NC(=O)CS)C(=O)N[C@@H](Cc1ccccc1)C(=O)O", "note": "[HS-Ac-Leu-Phe, 2-mercaptoacetyl-L-leucyl-L-phenylalanine]", "values": [{"measurement": "Ki", "setting": "Pseudomonas elastase", "value": 1500, "unit": "nM"}]}, {"compound": "c1cnc2c(c1)ccc1cccnc12", "note": "[O-phenanthroline]", "values": [{"measurement": "inhibition of the elastase", "setting": "[5]", "value": "inhibited"}]}, {"compound": "O=C(O)CN(CCN(CC(=O)O)CC(=O)O)CC(=O)O", "note": "[EDTA]", "values": [{"measurement": "inhibition of the elastase", "setting": "[5]", "value": "inhibited"}]}]}
